Reference: patent US20220177561A1, “Models and Methods Useful for the Treatment of Serrated Colorectal Cancer” (Sanford Burnham Prebys Medical Discovery Institute, priority 2018, published 2022)

Tests used:
ZKO organoids = assay: Interferon response of PKCζ-deficient (ZKO) small intestine organoids (3D culture); format: cell-based, mouse; settings: 3 μM for 24 hours then drug-free culture, qRT-PCR
Method: (§1) For generation of small intestine organoids, organoids were collected in ice-cold TrypLE solution (e.g., Life Technologies) to remove Matrigel, then pipetted 5 cycles and incubated 5 min at 37° C. to obtain single-cell suspension. Cells were washed twice in PBS 3% FBS and resuspended at room temperature with PBS with 100 μg/ml DNase I for 10 min before staining with anti-H-2Kb (clone AF6-88.5.5.3; eBioscience). For antigen presentation in MODE-K cells, cells were washed in PBS, trypsinized and wash with warm medium. Then, cells were resuspended and stained with anti-H-2Kk (clone 36-7-5; BioLegend) and anti-H-2Dk (clone 15-5-5; BD Pharmingen). Dead cells were excluded after 7-AAD staining. All flow cytometry experiments were performed on a BD LSRFortessa 14-colors analyzer at the Sanford Burnham Prebys Medical Discovery Institute Shared FACS Facility and flow cytometry data were analyzed using FlowJo software (Tree Star Inc.).
(§2) Intestinal epithelial cell (IEC) isolation was performed as described previously Llado et al., Repression of Intestinal Stem Cell Function and Tumorigenesis through Direct Phosphorylation of β-catenin and Yap by PKCζ. Cell Reports (2015) 10, 740-754, with some modification. […] Adenoma fragments were counted after isolation and a total of 250-500 fragments were mixed with 100 μl of growth factor reduced-Matrigel and plated in 12- or 24-well plates. […]

WT organoids = assay: Interferon response of WT small intestine organoids (3D culture); format: cell-based, mouse
Method: as §1, §2

[1] = test system: serrated tumors of DKO^IEC mice; assay: TGF-βR1-specific inhibition experiment in DKO^IEC mice; format: in vivo, mouse
Method: For CD8+ T cell depletion (FIG. 4), 10-week-old LKO^IEC mice were injected intraperitoneally with 200 μg of anti-CD8 antibody (clone 2.43) or control IgG twice a week for 5 weeks until they were sacrificed. For the TGF-βR1-specific inhibition experiment, 10-week-old DKO^IEC mice were treated twice a day with a dose of 10 mg of galunisertib (Tauriello et al., 2018) per os for 6 weeks until they were sacrificed. Control mice were treated with vehicle. For checkpoint immunotherapy, either 10-week-old or 13-week-old DKO^IEC mice were injected intraperitoneally with a dose of 10 mg/kg (body mass) of anti-PD-L1 antibody (clone 6E11) twice a week for 3 weeks until they were sacrificed. For the combination therapy of anti-PD-L1 antibody and TGF-βR1-specific inhibitor, 23-week-old DKO^IEC mice were treated twice a day with a dose of 10 mg of galunisertib per os and injected intraperitoneally with a dose of 10 mg/kg (body mass) of anti-PD-L1 antibody twice a week for 3 weeks until they were sacrificed. Anti-PD-L1 antibody was provided by de Sauvage FJ (Genentech).
Organs were isolated, rinsed in ice-cold PBS, fixed in 10% neutral buffered formalin overnight at 4° C., dehydrated, and embedded in paraffin. Sections (5 μm) were stained with hematoxylin and eosin (H&E). For immunohistochemistry, sections were deparaffinized, rehydrated, and then treated for antigen retrieval. After blocking in Protein Block Serum-Free solutions (DAKO), tissues were incubated with primary antibody overnight at 4° C. followed by incubation with biotinylated secondary antibody. Endogenous peroxidase was quenched in 3% H2O2 in water for 10 min at room temperature. Antibodies were visualized with avidin/biotin complex (e.g., Vectastain Elite; Vector Laboratories) using diaminobenzidine as the chromagen. For immunofluorescence, fresh frozen organs were embedded in Tissue-Tek OCT compound (e.g., Sakura) and section of 10 μm were fixed in methanol, washed with PBS and then incubated with the primary antibodies. Washed sections were incubated with Alexa-conjugated secondary antibodies (e.g., Life Technologies) and examined with a Zeiss LSM 710 NLO Confocal Microscope. In situ hybridization for murine Ereg was carried out using RNAscope Multiplex Fluorescent Assay kit (Advanced Cell Diagnostics) following manufacturer's instructions. The probe corresponding to CDS region of murine Ereg (Accession #: NM_007950.2, probe region: 116-1496; Advanced Cell Diagnostics; Cat #: 437981). Cell death was analyzed using the In-Situ Cell Death Detection kit, TMR red (Thermo) for TUNEL. Masson's Trichrome staining was carried out following manufacturer's instructions (Sigma HT15-1KT).
Flow cytometry experiments were performed using fresh small intestinal tissue and organoid preparations. For the analyses of small intestinal tissue, a half part of duodenum, jejunum, and ileum was used for quantitative flow cytometry analysis of immune cell population of lamina propria. Briefly, small intestines were rinsed in cold PBS, minced into small pieces, incubated in HBSS with EDTA (5 mM) and digested with collagenase (0.05 mg/ml) for 30 min at 37° C., followed by a discontinuous Percoll separation method (40 and 75%) to purify immune cells. The cells concentrated at the interface were collected and washed in cold PBS. Red blood cells were removed with lysing buffer (BD Pharm Lyse) and live cells were counted using Trypan blue and then saturated with mouse Fc Block (purified anti-mouse CD16/CD32; 1:50; clone 2.4G2; BD Pharmingen) 30 min at 4° C. before incubating with specific dyed antibodies.
Total RNA from mouse tissues and cultured organoids was extracted using the TRIZOL reagent (e.g., Invitrogen) and the RNeasy Mini Kit (e.g., Qiagen), followed by DNase treatment. […]

[2] = 10-week-old DKO^IEC mice, 10 mg per os twice a day for 6 weeks
[3] = 10-week-old DKO^IEC mice, 6 weeks

Nc1ncn([C@H]2C[C@H](O)[C@@H](CO)O2)c(=O)n1 [5-AZA-CdR, 5-aza-2-deoxycytidine]
expression of interferon-responsive genes Irf7, Oas1a, Isg15, and Cxcl10 (ZKO organoids): severely abrogated | expression of interferon-responsive genes Irf7, Oas1a, Isg15, and Cxcl10 (WT organoids; 3 μM for 24 hours then drug-free culture, qRT-PCR): robustly induced | MHC class I long-chain H-2K^b on the surface (WT organoids; flow cytometry): upregulated

Cc1cccc(-c2nn3c(c2-c2ccnc4ccc(C(N)=O)cc24)CCC3)n1 [galunisertib]
tumor load [1, 2]: did not reduce | tumor number [1, 2]: did not reduce | tumor size [1, 2]: did not reduce | incidence of invasive cancer [1, 3]: especially reduced | progression of SSA/P to the adenocarcinoma stage [1, 3]: suppressed | proportion of PD-L1^+/CD45^+ cells infiltrating DKO^IEC tumors ([1]; CD45/PD-L1 staining): not affected | collagen deposition ([1]; Masson's trichrome staining of small intestinal tumors): inhibition | proportion of Th17 cells in the tumors ([1]; flow cytometry): reduction | proportion of CD8^+ T cells ([1]; flow cytometry, DKO^IEC tumors): did not significantly change | proportion of CD11b^+ myeloid cells ([1]; flow cytometry, DKO^IEC tumors): did not significantly change | proportion of Treg cells ([1]; flow cytometry, DKO^IEC tumors): did not significantly change | expression of TGF-β-responsive genes, such as Angpt12, Cdkn2b, Il11, and Ereg ([1]; qRT-PCR): reduced expression | stromal phospho-SMAD2 ([1]; staining of small intestinal tumors): inhibition
